Results reported in paper PMC7932555, “A diffusible signal factor of the intestine dictates Salmonella invasion through its direct control of the virulence activator HilD” (PLoS Pathogens, 2021).
Changes are numbered by the printed parent chain.

Tests used:
wild type HilD = biological target: T1, wild type HilD (Salmonella typhimurium, UniProt P0CL08); assay: ELISA binding of fatty acid to wild type HilD; details: plates pre-adsorbed with 10 μM fatty acid, non-linear regression
T1 construct: made in house; host or cells: E. coli BL21 (DE3)
T1 sequence (P0CL08 1-309): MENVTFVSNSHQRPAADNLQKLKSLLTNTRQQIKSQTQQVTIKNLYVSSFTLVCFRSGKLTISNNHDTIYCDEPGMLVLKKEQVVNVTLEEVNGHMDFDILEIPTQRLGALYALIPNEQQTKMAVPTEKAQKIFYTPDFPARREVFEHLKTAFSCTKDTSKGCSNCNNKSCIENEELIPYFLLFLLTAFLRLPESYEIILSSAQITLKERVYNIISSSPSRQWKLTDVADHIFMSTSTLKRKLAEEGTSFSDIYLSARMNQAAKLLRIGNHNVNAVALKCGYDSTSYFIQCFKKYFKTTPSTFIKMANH
Experimental: (§1) hilD or its mutated sequences were amplified and cloned into pET15b(+) under an N-terminal 6xHis tag. The constructs were transformed into E. coli BL21 (DE3) for expression. Transformants were induced with 5 mM IPTG for 4 hours. Cultures were centrifuged, lysed and treated with TALON beads as described above. Bound protein was eluted by applying 1 ml elution buffer to the columns. Elution was confirmed by SDS-PAGE. Following confirmation, eluted samples were dialyzed overnight in dialysis buffer (50 mM sodium phosphate, 300 mM NaCl, 10% glycerol). Protein concentration and quality were assessed by Bradford estimation and SDS-PAGE.
(§2) 96-well polystyrene plates were coated with 10 μM fatty acid in coating buffer (0.05 M sodium carbonate-bicarbonate, pH 9.3) and incubated overnight at 4°C. Wells were washed three times with PBS, followed by addition of blocking buffer (1% Ficoll 400 in PBS). After blocking, wells were washed three times with PBS, and different concentrations of proteins in blocking buffer were added and incubated at room temperature for 2 hours. […] After color development, reaction was stopped with 1N sulfuric acid and read spectrophotometrically at 490 nm. Binding was analyzed in GraphPad Prism.
(§3) All experiments were repeated twice and data of representative experiment have been shown. Kd was calculated by using Total One-Site binding in GraphPad Prism. […]

HilD = biological target: T2, HilD (Salmonella typhimurium, UniProt P0CL08, R267A); assay: HilD half-life (degradation) assay by western blot; format: cell-based; details: HilD R267A-3XFLAG; 20 μM fatty acid
T2 construct: hilD with a C-terminal 3XFLAG tag was cloned into pWSK29 under control of the tetRA promoter; expressed in transfected cells; host or cells: Salmonella Typhimurium strain carrying pWSK29-PtetRA-hilD-3XFLAG (background with chromosomal hilD, hilC and rtsA null)
T2 sequence (P0CL08 1-309 R267A): T1 sequence (P0CL08 1-309) with R267A
Experimental: The HilD half-life was assessed as previously described. Salmonella strains having plasmids with tetracycline-inducible hilD or its mutated sequence with a C-terminal 3XFLAG tag and a sipB::lacZ fusion (for invasion gene expression assessment) were grown overnight and then diluted 1:100 into LB buffered with 100 mM MOPS (pH 6.7) with appropriate antibiotics and fatty acids or control solvents. After 2 hours of growth, aliquots were collected to quantitate sipB::lacZ expression in a β-galactosidase assay. Individual cultures were then equilibrated to an OD600 of 1.0 to ensure equal density at the half-life assay beginning point. New protein production was halted by addition of a cocktail of antibiotics (rifampin, streptomycin and spectinomycin). These cultures were incubated at 37°C and aliquots were collected every 30 minutes for 2 hours. Samples were lysed in 5X sample buffer, boiled, and immunoblotted with an anti-FLAG antibody to monitor HilD.

[1] = test system: Salmonella invasion of HEp-2 cells; assay: Invasion of HEp-2 cells by gentamicin protection assay; format: cell-based
Experimental: Invasion was quantified by gentamicin protection assay. HEp-2 cells were seeded into 24-well cell culture plates (~10^5/well) and allowed to attach overnight at 37° C with 5% CO2). Salmonella strains were grown overnight without aeration in LB buffered with 100 mM HEPES, pH 8.0, with antibiotics and fatty acids or control solvent. Overnight cultures were washed with sterile PBS. Bacteria were added to the HEp-2 cell monolayer (MOI 1:10), centrifuged briefly (10 minutes at 200 x g) and incubated for 1 hour at 37°C. Wells were washed three times with sterile PBS followed by addition of media with 200 μg/mL gentamicin and incubated for 1 hour. Cells were then washed three times with sterile PBS and lysed by 0.1% Triton X-100. Intracellular bacteria were enumerated by spreading lysates onto LB agar plates with appropriate selection.

HilD^K293A [2] = biological target: T3, HilD^K293A (Salmonella typhimurium, UniProt P0CL08, K293A); assay: EMSA of hilA promoter DNA with HilD K293A; format: biochemical; details: 10 nM hilA promoter DNA, 30 μM fatty acid
T3 construct: made in house; host or cells: E. coli BL21 (DE3)
T3 sequence (P0CL08 1-309 K293A): T1 sequence (P0CL08 1-309) with K293A
Experimental: These were performed as previously described. Briefly, 10 nM hilA promoter DNA (-286 to +31) was mixed with 150 nM HilD in a binding buffer (100 mM Tris pH 7.5, 10 mM EDTA, 1M KCl, 1 mM DTT, 50% v/v glycerol). Fatty acids or control solvents were added at various concentrations. Binding reaction was performed at room temperature for 1 hour. Dye solution was added to final concentration of 1X and samples were separated on 10% acrylamide gels. DNA was stained using SYBR Safe and visualized in BioRad GelDoc imaging system.

HilD^K293A [3] = biological target: T3, HilD^K293A; assay: ELISA binding of fatty acid to HilD K293A
Experimental: as §1, §2, §3

[4] = Salmonella expressing HilD K293A grown overnight with 20 μM fatty acid
[5] = Salmonella expressing HilD N44A grown overnight with 20 μM fatty acid
[6] = Salmonella expressing wild type HilD grown overnight with 20 μM fatty acid

| Structure (SMILES) | Kd (wild type HilD) | HilD degradation (HilD) | inhibition of invasion of HEp-2 cells [1, 4] | inhibition of invasion of HEp-2 cells [1, 5] | inhibition of invasion of HEp-2 cells [1, 6] | effect on HilD binding to hilA promoter DNA (HilD^K293A [2]) | binding in ELISA (in words) (HilD^K293A [3]) | inhibition of invasion of HEp-2 cells ([1]; Salmonella expressing HilD Q290A grown overnight with 20 μM fatty acid) | Kd (HilD^K293A [3]; plates pre-adsorbed with 10 μM fatty acid) |
| --- | --- | --- | --- | --- | --- | --- | --- | --- | --- |
| CCCCCCCCCCCCC/C=C\C(=O)O [c2-HDA, cis-2-hexadecenoic acid] | 3.5 µM | protected from degradation | invaded HEp-2 cells despite the presence of 20 μM c2-HDA | unaffected | 8 fold | remained bound to the hilA promoter | negligible binding |  |  |
| CCCCCCCCCCCCC/C=C/C(=O)O [t2-HDA, trans-2-hexadecenoic acid] | 9.8 µM | escaped degradation | 2 fold | unaffected | 2 fold | efficiently reduced the DNA binding capacity |  | had no effect | 16.7 µM |
